Measured values from patent EP0545103A1, “Insecticidal, acaricidal and molluscicidal 1-(substituted) thioalkylpyrroles” (priority 1991, dated 1993).

Experiments:
Assay type in all cases: in vivo
[1] = tested on: Empoasca abrupta, adult, western potato leafhopper; assay: Western potato leafhopper systemic uptake test; parameters: key: 0: no effect; 10-25% kill; 26-35% kill; 36-45% kill; 46-55% kill; 56-65% kill; 66-75% kill; 76-85% kill; 86-99% kill; 9: 100% kill; settings: 100 ppm
Method in brief: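 Cut Sieva lima bean stems stood 3 days at 27 °C in aqueous emulsion of test material (100 ppm, further 10-fold dilutions) for systemic uptake. One leaf then exposed to about 10 adult leafhoppers in a moist petri dish; mortality counted after 2 days and rated on a scale.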

[2] = tested on: Heliothis virescens, 3rd instar tobacco budworm; assay: Tobacco budworm 3rd instar test, dipped cotton cotyledons; parameters: key: 0: no effect; 10-25% kill; 26-35% kill; 36-45% kill; 46-55% kill; 56-65% kill; 66-75% kill; 76-85% kill; 86-99% kill; 9: 100% kill; settings: mortality rating after 3 days
Method in brief: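 Cotton cotyledons dipped in compound solution (10,000 ppm stock in 35% aqueous acetone, water dilutions), dried and quartered. One caterpillar per section, ten sections per treatment. After 3 days, mortality and feeding-damage reduction scored on a rating scale.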

[3] = tested on: Diabrotic undecimpunctata howardi, 3rd instar southern corn rootworm; assay: Southern corn rootworm soil test; parameters: key: 0: no effect; 10-25% kill; 26-35% kill; 36-45% kill; 46-55% kill; 56-65% kill; 66-75% kill; 76-85% kill; 86-99% kill; 9: 100% kill; settings: mortality rating after 6 days
Method in brief: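 Compound applied in acetone to talc at 1.25 and 0.25 mg active ingredient per jar (about 50 and 10 kg/ha), dried, then mixed with millet seed and moist soil. Ten 3rd instar larvae added per jar; mortality counted at 6 days, with missing larvae scored dead. Results rated on a scale.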

[4] = tested on: Empoasca abrupta, adult, western potato leafhopper; assay: Western potato leafhopper contact test, dipped limabean leaf; parameters: key: 0: no effect; 10-25% kill; 26-35% kill; 36-45% kill; 46-55% kill; 56-65% kill; 66-75% kill; 76-85% kill; 86-99% kill; 9: 100% kill
Method in brief: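 Sieva limabean leaf dipped 3 s in compound solution (diluted in water from 10,000 ppm stock in 35% acetone), dried, and infested with about 10 adult leafhoppers on moist filter paper. Mortality counted after 2 days and scored on a rating scale.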

[5] = tested on: Heliothis virescens, egg, tobacco budworm; assay: Tobacco budworm egg test, dipped cotton leaf and eggs; parameters: key: 0: no effect; 10-25% kill; 26-35% kill; 36-45% kill; 46-55% kill; 56-65% kill; 66-75% kill; 76-85% kill; 86-99% kill; 9: 100% kill; settings: mortality rating after 3 days
Method in brief: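 Compound dissolved at 10,000 ppm in 35% aqueous acetone, diluted with water. A cotton leaf and a cheesecloth square with roughly 50-100 eggs aged 6-30 h are each dipped for about 3 s, then combined and kept humid. Mortality counted after 3 days and rated on a scale.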

[6] = tested on: Spodoptera eridania, 3rd instar larvae, southern armyworm; assay: Southern armyworm 7-day residual test; settings: R designates Residual: 7-day residual foliage, concentration not given; for ARMYWORM Day 3 R: rating at 3 days; for ARMYWORM Day 5 R: rating at 5 days
Method in brief: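 Compound was dissolved in 35% aqueous acetone (10,000 ppm stock) and diluted with water before treating lima bean leaves. The leaves were aged 7 days under high-intensity greenhouse lamps (14 h day). Third-instar Spodoptera eridania larvae were then assayed on the foliage and rated on a scale.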

[7] = systemic uptake, rating scale 0-9
[8] = 100 ppm, contact, rating scale 0-9
[9] = 10 ppm, contact, rating scale 0-9

SMILES: CN(C)C(=S)SCn1c(-c2ccc(Cl)cc2)c(C#N)c(Br)c1C(F)(F)F [Example 24]
- LEAFHOPPER Systemic ([1]; cut stem in emulsion 3 days, mortality rating after 2 days): 0
- TOBACCO BUDWORM 3rd Instar ([2]; 10 ppm): 0
- TOBACCO BUDWORM 3rd Instar ([2]; 100 ppm): 9 (100% kill)
- TOBACCO BUDWORM 3rd Instar ([2]; 1000 ppm): 9 (100% kill)
- SOUTHERN CORN ROOTWORM ([3]; 1 (ppm as headed)): 0
- SOUTHERN CORN ROOTWORM ([3]; 10 (ppm as headed)): 0
- SOUTHERN CORN ROOTWORM ([3]; 50 (ppm as headed)): 9 (100% kill)
- LEAFHOPPER Contact ([4]; 10 ppm, mortality rating after 2 days): 0
- LEAFHOPPER Contact ([4]; 100 ppm, mortality rating after 2 days): 9 (100% kill)
- TOBACCO BUDWORM Egg ([5]; 1000 ppm): 0
- ARMYWORM Day 3 R [6]: 9 (100% kill)
- ARMYWORM Day 5 R [6]: 9 (100% kill)

SMILES: CCOC(=S)SCn1c(Cl)c(C#N)c(Cl)c1-c1ccc(Cl)c(Cl)c1 [Example 37]
- LEAFHOPPER Systemic [1, 7]: 0
- TOBACCO BUDWORM 3rd Instar ([2]; 10 ppm): 0
- TOBACCO BUDWORM 3rd Instar ([2]; 100 ppm): 9 (100% kill)
- TOBACCO BUDWORM 3rd Instar ([2]; 1000 ppm): 9 (100% kill)
- SOUTHERN CORN ROOTWORM ([3]; 50 (ppm as headed)): 0
- LEAFHOPPER Contact [4, 8]: 6 (66-75% kill)
- TOBACCO BUDWORM Egg ([5]; 1000 ppm): 0
- ARMYWORM Day 3 R [6]: 9 (100% kill)
- ARMYWORM Day 5 R [6]: 9 (100% kill)

SMILES: CN=C(NC)SCn1c(Cl)c(Cl)c(C#N)c1-c1ccc(Cl)c(Cl)c1 [Example 15]
- LEAFHOPPER Systemic [1, 7]: 0
- TOBACCO BUDWORM 3rd Instar ([2]; 10 ppm): 0
- SOUTHERN CORN ROOTWORM ([3]; 50 (ppm as headed)): 0
- LEAFHOPPER Contact [4, 9]: 0
- LEAFHOPPER Contact [4, 8]: 6 (66-75% kill)
- TOBACCO BUDWORM Egg ([5]; 100 ppm): 0
- TOBACCO BUDWORM Egg ([5]; 1000 ppm): 0
- ARMYWORM Day 3 R [6]: 9 (100% kill)
- ARMYWORM Day 5 R [6]: 9 (100% kill)

SMILES: N#Cc1c(Br)c(C(F)(F)F)n(CSC2=NCCS2)c1-c1ccc(Cl)cc1 [Example 16]
- LEAFHOPPER Systemic [1, 7]: 0
- TOBACCO BUDWORM 3rd Instar ([2]; 10 ppm): 9 (100% kill)
- TOBACCO BUDWORM 3rd Instar ([2]; 100 ppm): 9 (100% kill)
- TOBACCO BUDWORM 3rd Instar ([2]; 1000 ppm): 9 (100% kill)
- SOUTHERN CORN ROOTWORM ([3]; 50 (ppm as headed)): 9 (100% kill)
- LEAFHOPPER Contact [4, 9]: 9 (100% kill)
- LEAFHOPPER Contact [4, 8]: 9 (100% kill)
- TOBACCO BUDWORM Egg ([5]; 100 ppm): 0
- TOBACCO BUDWORM Egg ([5]; 1000 ppm): 0
- ARMYWORM Day 3 R [6]: 9 (100% kill)
- ARMYWORM Day 5 R [6]: 9 (100% kill)
